# Data reported in patent US9452157B2, “Pharmaceutical compositions comprising rifaximin and amino acids, preparation methods and use thereof” (ALFA WASSERMANN SPA, priority 2012, dated 2016).
# What was measured:
# [1] = format: physicochemical
# Method: A rifaximin amount corresponding to 200 mg was dissolved in 10 ml of a solution formed by ethanol/water 1:4 (v/v), left for two days under stirring at room temperature.
# Rifaximin solubility was determined by wavelength spectrophotometry at wavelength 276 nm with a rifaximin calibration curve.
# [2] = WO 2005/044823; cited from earlier work
SMILES,Rifaximin solubility [1] [µg/mL],solubility of rifaximin [1] [µg/mL],water solubility [2]
CO[C@H]1/C=C/O[C@@]2(C)Oc3c(C)c(O)c4c(O)c(c5c(nc6cc(C)ccn65)c4c3C2=O)NC(=O)/C(C)=C\C=C\[C@H](C)[C@H](O)[C@@H](C)[C@@H](O)[C@@H](C)[C@H](OC(C)=O)[C@@H]1C [Rifaximin],48,48,–
CO[C@H]1/C=C/O[C@@]2(C)Oc3c(C)c(O)c4c(O)c(c5c(nc6cc(C)ccn65)c4c3C2=O)NC(=O)/C(C)=C\C=C\[C@H](C)[C@H](O)[C@@H](C)[C@@H](O)[C@@H](C)[C@H](OC(C)=O)[C@@H]1C [rifaximin polymorph α],–,–,substantially insoluble
